Laboratory results: article PMC9516332 (Frontiers in Oncology, 2022)
Like-named read-outs stand apart in the source and are kept apart here.

Legend:
134 cancer cell lines = experiment: Cell viability assay (ATPlite, 72 hours), IC50 on cancer cell line panel
AP-1060 (ETV6-NTRK3) = experiment: Cell viability assay; conditions: read-out: IC50 in cell proliferation assay

IC50 (134 cancer cell lines; Homo sapiens, MV4-11, read-out: IC50 in cell proliferation assay, MV4-11 cell line (FLT3 ITD)): 1230 nM | IC50 (134 cancer cell lines; Homo sapiens, MeWo, read-out: IC50 in cell proliferation assay, MeWo cell line): 3200 nM | IC50 (134 cancer cell lines; Homo sapiens, NCCIT, read-out: IC50 in cell proliferation assay, NCC-IT cell line): 3110 nM | IC50 (134 cancer cell lines; Homo sapiens, NCI-H82, read-out: IC50 in cell proliferation assay, cell line NCI-H82): 1570 nM | IC50 (134 cancer cell lines; Homo sapiens, NCI-H460, read-out: IC50 in cell proliferation assay, NCI-H460 cell line): 3160 nM | IC50 (134 cancer cell lines; Homo sapiens, NCI-H661, read-out: IC50 in cell proliferation assay, NCI-H661 cell line): 3470 nM | IC50 (134 cancer cell lines; Homo sapiens, NCI-H716, read-out: IC50 in cell proliferation assay, cell line NCI-H716 (FGFR2-COL14A1)): 1550 nM | IC50 (134 cancer cell lines; Homo sapiens, NCI-H1650, read-out: IC50 in cell proliferation assay, NCI-H1650 cell line (EGFR exon19del)): 3380 nM | IC50 (134 cancer cell lines; Homo sapiens, NCI-H1975, read-out: IC50 in cell proliferation assay, NCI-H1975 cell line (EGFR p.L858R + p.T790M)): 1920 nM | IC50 (134 cancer cell lines; Homo sapiens, NCI-H2228, read-out: IC50 in cell proliferation assay, NCI-H2228 cell line (EML4-ALK)): 38 nM | IC50 (134 cancer cell lines; Homo sapiens, OVCAR-3, read-out: IC50 in cell proliferation assay, cell line OVCAR-3): 5140 nM | IC50 (134 cancer cell lines; Homo sapiens, PFSK-1, read-out: IC50 in cell proliferation assay, cell line PFSK-1): 1540 nM | IC50 (134 cancer cell lines; Homo sapiens, RL95-2, read-out: IC50 in cell proliferation assay, cell line RL95-2 (EGFR p.A289V)): 1760 nM | IC50 (134 cancer cell lines; Homo sapiens, RPMI-7951, read-out: IC50 in cell proliferation assay, cell line RPMI-7951 (BRAF p.V600E)): 3680 nM | IC50 (134 cancer cell lines; Homo sapiens, RS4-11, read-out: IC50 in cell proliferation assay, cell line RS4;11): 1080 nM | IC50 (134 cancer cell lines; Homo sapiens, Rec1, read-out: IC50 in cell proliferation assay, cell line REC-1): 2210 nM | IC50 (134 cancer cell lines; Homo sapiens, SHP77, read-out: IC50 in cell proliferation assay, cell line SHP-77): 3400 nM | IC50 (134 cancer cell lines; Homo sapiens, SK-BR-3, read-out: IC50 in cell proliferation assay, cell line SK-BR-3 (ERBB2 amplification)): 3910 nM | IC50 (134 cancer cell lines; Homo sapiens, SK-N-AS, read-out: IC50 in cell proliferation assay, cell line SK-N-AS): 2090 nM | IC50 (134 cancer cell lines; Homo sapiens, SK-N-FI, read-out: IC50 in cell proliferation assay, cell line SK-N-FI): 537 nM | IC50 (134 cancer cell lines; Homo sapiens, SK-N-MC, read-out: IC50 in cell proliferation assay, cell line SK-N-MC): 709 nM | IC50 (134 cancer cell lines; Homo sapiens, SK-N-SH, read-out: IC50 in cell proliferation assay, cell line SK-N-SH (ALK p.F1174L)): 875 nM | IC50 (134 cancer cell lines; Homo sapiens, SNU-5, read-out: IC50 in cell proliferation assay, cell line SNU-5 (MET amplification)): 3870 nM | IC50 (134 cancer cell lines; Homo sapiens, SNU-16, read-out: IC50 in cell proliferation assay, cell line SNU-16 (FGFR2 amplification)): 3800 nM | IC50 (134 cancer cell lines; Homo sapiens, SNU-C2B, read-out: IC50 in cell proliferation assay, cell line SNU-C2B (EGFR p.R165Q)): 2540 nM | IC50 (134 cancer cell lines; Homo sapiens, SU-DHL-1, read-out: IC50 in cell proliferation assay, cell line SU-DHL-1 (NPM1-ALK)): 192 nM | IC50 (134 cancer cell lines; Homo sapiens, SU-DHL-6, read-out: IC50 in cell proliferation assay, cell line SU-DHL-6): 2950 nM | IC50 (134 cancer cell lines; Homo sapiens, SUP-T1, read-out: IC50 in cell proliferation assay, cell line SUP-T1): 3500 nM | IC50 (134 cancer cell lines; Homo sapiens, SW48, read-out: IC50 in cell proliferation assay, cell line SW48 (EGFR p.G719S)): 1290 nM | IC50 (134 cancer cell lines; Homo sapiens, SW480, read-out: IC50 in cell proliferation assay, cell line SW480): 2440 nM | IC50 (134 cancer cell lines; Homo sapiens, SW626, read-out: IC50 in cell proliferation assay, cell line SW626): 3430 nM | IC50 (134 cancer cell lines; Homo sapiens, SW780, read-out: IC50 in cell proliferation assay, cell line SW780 (FGFR3-BAIAP2L1)): 2070 nM | IC50 (134 cancer cell lines; Homo sapiens, SW837, read-out: IC50 in cell proliferation assay, cell line SW837): 2940 nM | IC50 (134 cancer cell lines; Homo sapiens, SW872, read-out: IC50 in cell proliferation assay, cell line SW872 (BRAF p.V600E)): 2780 nM | IC50 (134 cancer cell lines; Homo sapiens, SW900, read-out: IC50 in cell proliferation assay, cell line SW900): 2340 nM | IC50 (134 cancer cell lines; Homo sapiens, SW948, read-out: IC50 in cell proliferation assay, cell line SW948): 2280 nM | IC50 (134 cancer cell lines; Homo sapiens, SW982, read-out: IC50 in cell proliferation assay, cell line SW982 (BRAF p.V600E)): 4150 nM | IC50 (134 cancer cell lines; Homo sapiens, SW-620, read-out: IC50 in cell proliferation assay, cell line SW620): 1560 nM | IC50 (134 cancer cell lines; Homo sapiens, T98G, read-out: IC50 in cell proliferation assay, cell line T98G): 4700 nM | IC50 (134 cancer cell lines; Homo sapiens, TCC-SUP, read-out: IC50 in cell proliferation assay, cell line TCCSUP): 3820 nM | IC50 (134 cancer cell lines; Homo sapiens, THP-1, read-out: IC50 in cell proliferation assay, cell line THP-1): 4760 nM | IC50 (134 cancer cell lines; Homo sapiens, U2OS, read-out: IC50 in cell proliferation assay, cell line U2OS): 3860 nM | IC50 (134 cancer cell lines; Homo sapiens, U-87 MG, read-out: IC50 in cell proliferation assay, cell line U-87MG ATCC): 4440 nM | IC50 (134 cancer cell lines; Homo sapiens, U-118-MG, read-out: IC50 in cell proliferation assay, cell line U-118MG): 3850 nM | IC50 (134 cancer cell lines; Homo sapiens, UMUC3, read-out: IC50 in cell proliferation assay, cell line UM-UC-3): 2570 nM | IC50 (134 cancer cell lines; Hs766T, read-out: IC50 in cell proliferation assay, Hs 766T cell line): 3520 nM | IC50 (134 cancer cell lines; L-82, read-out: IC50 in cell proliferation assay, L-82 cell line (NPM1-ALK)): 33 nM | IC50 (134 cancer cell lines; Rh30, read-out: IC50 in cell proliferation assay, cell line Rh30): 1010 nM | IC50 (134 cancer cell lines; read-out: IC50 in cell proliferation assay, 11-18 cell line (EGFR p.L858R)): 2090 nM | IC50 (134 cancer cell lines; read-out: IC50 in cell proliferation assay, Hs 852.T cell line): 1870 nM | IC50 (134 cancer cell lines; read-out: IC50 in cell proliferation assay, JAR cell line): 3580 nM | IC50 (134 cancer cell lines; read-out: IC50 in cell proliferation assay, cell line 5637): 2490 nM | IC50 (134 cancer cell lines; read-out: IC50 in cell proliferation assay, cell line A-388): 3640 nM | IC50 (134 cancer cell lines; read-out: IC50 in cell proliferation assay, cell line DB): 3990 nM | IC50 (134 cancer cell lines; read-out: IC50 in cell proliferation assay, cell line DEL (NPM1-ALK)): 62 nM | IC50 (134 cancer cell lines; read-out: IC50 in cell proliferation assay, cell line ES-2 (BRAF p.V600E)): 2810 nM | IC50 (134 cancer cell lines; read-out: IC50 in cell proliferation assay, cell line PA-1): 2080 nM | IC50 (134 cancer cell lines; read-out: IC50 in cell proliferation assay, cell line PC-3): 4060 nM | IC50 (134 cancer cell lines; read-out: IC50 in cell proliferation assay, cell line RD): 1710 nM | IC50 (134 cancer cell lines; read-out: IC50 in cell proliferation assay, cell line RKO (BRAF p.V600E)): 1630 nM | IC50 (134 cancer cell lines; read-out: IC50 in cell proliferation assay, cell line RL): 4060 nM | IC50 (134 cancer cell lines; read-out: IC50 in cell proliferation assay, cell line RT-4 (FGFR3-TACC3)): 4050 nM | IC50 (134 cancer cell lines; read-out: IC50 in cell proliferation assay, cell line SR (NPM1-ALK)): 200 nM | IC50 (134 cancer cell lines; read-out: IC50 in cell proliferation assay, cell line T24): 4040 nM | IC50 (134 cancer cell lines; read-out: IC50 in cell proliferation assay, cell line TT (RET p.C634W)): 3830 nM | IC50 (134 cancer cell lines; read-out: IC50 in cell proliferation assay, cell line VA-ES-BJ): 4250 nM
Structure (SMILES): Cc1cc(Nc2ncc(Cl)c(Nc3ccccc3S(=O)(=O)C(C)C)n2)c(OC(C)C)cc1C1CCNCC1 [ceritinib]
IC50 (AP-1060 (ETV6-NTRK3)): 1770 nM
